Values quoted from earlier work, collected in patent publication US10214591B1, “Monoclonal antibody to human line-1 ORF2 protein and method for early detection of transforming cells in pre-neoplastic tissues of a human subject” (Alienor Farma, priority 2015, dated 2019).

Legend:
human tumorigenic cells = details: xenografted mice

SMILES	effect on proliferation and differentiation of cancer cells (tumorigenic cell lines)	effect on tumor progression (human tumorigenic cells)
O=C1Nc2ccc(Cl)cc2[C@@](C#CC2CC2)(C(F)(F)F)O1 [efavirenz, (S)-6-Chloro-4-(cyclopropylethynyl)-1,4-dihydro-4-(trifluoromethyl)-2H-3,1 benzoxazin-2-one]	reduced proliferation and enhanced differentiation	arrest, or a significant reduction, of tumor progression
Cc1ccnc2c1NC(=O)c1cccnc1N2C1CC1 [nevirapine]	reduced proliferation and enhanced differentiation	–
